Consider eight compounds from patent publication US20060128723A1, “Sulptionamide compounds that modulate chemokine receptor activity (CCR4)” (priority 2003, published 2006).

Molecules are shown by their SMILES. Structures can show the parent of a compound that is named as a salt.

One may read the melting point as the temperature, or range, at which the solid turns liquid. Take `COc1nc(Br)cnc1NS(=O)(=O)c1scc(Cl)c1Cl` (as salt: ammonium) [Example 5, N-(5-Bromo-3-methoxypyrazin-2-yl)-3,4-dichlorothiophene-2-sulphonamide, ammonium salt]: the melting point is 204 °C (dec.).

In the case of `COc1nc(Br)cnc1NS(=O)(=O)c1sc(Cl)c(Cl)c1Cl` (as salt: ammonium) [Example 6, N-(5-Bromo-3-methoxypyrazin-2-yl)-3,4,5-trichlorothiophene-2-sulphonamide, ammonium salt], the melting point is 211 °C (dec.).

As to `COc1nccnc1NS(=O)(=O)c1sc(Cl)c(Cl)c1Cl` [Example 1, 3,4,5-Trichloro-N-(3-methoxypyrazin-2-yl)thiophene-2-sulphonamide], the melting point was in the range of 212 to 214 °C.

`COc1nccnc1NS(=O)(=O)c1scc(Cl)c1Cl` [Example 2, 3,4-Dichloro-N-(3-methoxypyrazin-2-yl)thiophene-2-sulphonamide] came in with a melting point of 151.5 to 152.5 °C.

Take `COc1nc(C)cnc1NS(=O)(=O)c1sc(Cl)c(Cl)c1Cl` [Example 3, 3,4,5-Trichloro-N-(3-methoxy-5-methylpyrazin-2-yl)thiophene-2-sulphonamide]: the melting point fell in the range of 146 to 147 °C.

`COc1nc(C)cnc1NS(=O)(=O)c1scc(Cl)c1Cl` [Example 4, 3,4-Dichloro-N-(3-methoxy-5-methylpyrazin-2-yl)thiophene-2-sulphonamide] yielded a melting point of 117 to 118 °C.

On to `COc1nc(Cl)cnc1NS(=O)(=O)c1sc(Cl)c(Cl)c1Cl` [Example 7, 3,4,5-Trichloro-N-(5-chloro-3-methoxypyrazin-2-yl)thiophene-2-sulphonamide.], for which the melting point is 178 to 179 °C.

`COc1nc(Cl)cnc1NS(=O)(=O)c1scc(Cl)c1Cl` [Example 8, 3,4-Dichloro-N-(5-chloro-3-methoxypyrazin-2-yl)thiophene-2-sulphonamide.] registered a melting point of 116 to 117 °C.
